The record followed here is patent US10072020B1, “Isatin spiro compounds with antibacterial activities and a method of preparing the same” (SHAANXI UNIVERSITY OF SCIENCE AND TECHNOLOGY, priority 2018, dated 2018).

Values after ≈ are worked out from the molar mass of the structure shown. A value given as a limit tells only on which side of the number the result lay.

Common to all, as to test: Antibacterial activity test, MIC by agar dilution
Holding throughout (format): cell-based
For orientation: In agar dilution, organisms are placed on agar that contains the substance at set levels.

The subject of test [1] is Escherichia coli 10-2. The note with it: 102, MH agar plate two-fold dilution, 25° C. for 18-24 hours, read-out: Minimum Inhibitory Concentrations. As to the method:
(§1) Antibacterial Activity Test of the Compounds of the Invention
(§2) The compounds were tested for their antibacterial activities using the following standard strains: Escherichia coli ATCC 25922, Escherichia coli 10-1, and Escherichia coli 10-2.
(§3) Preparation of Escherichia coli strains and bacterial liquid: the test strains (Escherichia coli ATCC 25922, Escherichia coli 10-1, and Escherichia coli 10-2) stock solutions were seeded in LB solid Media Petri dishes and placed in a 37° C. incubator overnight. The next day, single colonies were picked from LB solid petri dishes and inoculated into 6-10 mL LB liquid medium and cultured with shaking at 150 rpm for 3 hours at 37° C. 100 μL of the liquid was evenly coated on an LB solid plate, and inverted in an incubator at 37° C. overnight. Viable cells in the logarithmic growth phase were collected after 16-18 hours, and sterile water was added to form a bacteria suspension with the number of bacteria being 106 CFu·mL^−1.
(§4) Preparation of compound-containing agar plate: MH agar was heated to dissolve and placed in 45-50° C. water bath to balance, the compounds were added at different concentrations (160, 300, 600 μg·mL^−1). The mixtures were mixed evenly and poured onto sterilization plates, placed into a sealed plastic bag at 2-8° C.
(§5) Determination of the minimum inhibitory concentration: the minimum inhibitory concentrations (MICs) of the test compounds on the test bacteria were determined by diluting the agar plate two-fold. Multi-point inoculation instrument was used to inoculate bacteria to the MH agar medium that contains the compounds, forming a plaque with a diameter of 5 to 8 mm. After the plates were incubated at 25° C. for 18-24 hours, the growth state of the bacteria was observed, and the minimum compound concentration for inhibiting the growth of the bacteria was the MIC.

Test [2] deals with Escherichia coli ATCC 25922. To be noted: ATCC25922, MH agar plate two-fold dilution, 25° C. for 18-24 hours, read-out: Minimum Inhibitory Concentrations. How it is done: as §1, §2, §3, §4, §5
The subject of test [3] is Escherichia coli 10-1. To be noted: 101, MH agar plate two-fold dilution, 25° C. for 18-24 hours, read-out: Minimum Inhibitory Concentrations. How it is done: as §1, §2, §3, §4, §5

`CN1C(=O)[C@@]2(OC=C2C=O)c2cc(Br)ccc21` [Compound 1, (R)-5-bromo-1-methyl-2-oxospiro[indoline-3,2′-oxete]-3′-carbaldehyde]: the values for the MIC in test [1], in test [2] and in test [3] were 160 µg/mL (≈ 544 µM), 300 µg/mL (≈ 1020 µM) and 160 µg/mL (≈ 544 µM), respectively.

On to `CN1C(=O)[C@@]2(OC=C2C=O)c2cccc(Br)c21` [Compound 2, (R)-7-bromo-1-methyl-2-oxospiro[indoline-3,2′-oxete]-3′-carbaldehyde], for which the MIC in test [1] was > 160 µg/mL; in test [2], 300 µg/mL (≈ 1020 µM); in test [3] it was 160 µg/mL (≈ 544 µM).

`CN1C(=O)[C@@]2(OC=C2C=O)c2cc(Cl)ccc21` [Compound 3, (R)-5-chloro-1-methyl-2-oxospiro[indoline-3,2′-oxete]-3′-carbaldehyde]: the figures for the MIC in test [1], in test [2] and in test [3] were 300 µg/mL (≈ 1200 µM), 300 µg/mL (≈ 1200 µM) and 160 µg/mL (≈ 641 µM), respectively.

`CN1C(=O)[C@@]2(OC=C2C=O)c2cccc(Cl)c21` [Compound 4, (R)-7-chloro-1-methyl-2-oxospiro[indoline-3,2′-oxete]-3′-carbaldehyde]: the MIC was 160 µg/mL (≈ 641 µM) in test [1], > 600 µg/mL in test [2] and 300 µg/mL (≈ 1200 µM) in test [3].

In the case of `CN1C(=O)[C@@]2(OC(c3ccccc3)=C2C(=O)c2ccccc2)c2cc(Br)ccc21` [Compound 5, (R)-3′-benzoyl-5-bromo-1-methyl-4′-phenylspiro[indoline-3,2′-oxet]-2-one], the MIC worked out at 300 µg/mL (≈ 672 µM) in test [1], 160 µg/mL (≈ 359 µM) in test [2] and 300 µg/mL (≈ 672 µM) in test [3].

Regarding `CN1C(=O)[C@@]2(OC(c3ccccc3)=C2C(=O)c2ccccc2)c2cccc(Br)c21` [Compound 6, (R)-3′-benzoyl-7-bromo-1-methyl-4′-phenylspiro[indoline-3,2′-oxet]-2-one], the MIC is 300 µg/mL (≈ 672 µM) in test [1], 300 µg/mL (≈ 672 µM) in test [2] and > 600 µg/mL in test [3].

Regarding `CN1C(=O)[C@@]2(OC(c3ccccc3)=C2C(=O)c2ccccc2)c2cc(Cl)ccc21` [Compound 7, (R)-3′-benzoyl-5-chloro-1-methyl-4′-phenylspiro[indoline-3,2′-oxet]-2-one], the MIC was 300 µg/mL (≈ 747 µM) in test [1], 300 µg/mL (≈ 747 µM) in test [2] and 160 µg/mL (≈ 398 µM) in test [3].

Turning to `CN1C(=O)[C@@]2(OC(c3ccccc3)=C2C(=O)c2ccccc2)c2cccc(Cl)c21` [Compound 8, (R)-3′-benzoyl-7-chloro-1-methyl-4′-phenylspiro[indoline-3,2′-oxet]-2-one], the MIC in test [1] amounted to 300 µg/mL (≈ 747 µM); in test [2], 160 µg/mL (≈ 398 µM); in test [3] it was 300 µg/mL (≈ 747 µM).

For `CCN1C(=O)[C@@]2(OC=C2C(=O)c2ccccc2)c2cc(Br)ccc21` [Compound 9, (R)-3′-benzoyl-5-bromo-1-ethylspiro[indoline-3,2′-oxet]-2-one], the values for the MIC in test [1], in test [2] and in test [3] were 160 µg/mL (≈ 416 µM), 300 µg/mL (≈ 781 µM) and 300 µg/mL (≈ 781 µM), respectively.

As to `CCCN1C(=O)[C@@]2(OC(c3ccccc3)=C2C=O)c2cccc(Br)c21` [Compound 10, (R)-7-bromo-2-oxo-4′-phenyl-1-propylspiro[indoline-3,2′-oxete]-3′-carbaldehyde], the MIC in test [1] is > 600 µg/mL; in test [2], 300 µg/mL (≈ 753 µM); in test [3], 160 µg/mL (≈ 402 µM).

With `CCCN1C(=O)[C@@]2(OC=C2C(=O)c2ccccc2)c2cc(Cl)ccc21` [Compound 11, (R)-3′-benzoyl-5-chloro-1-propylspiro[indoline-3,2′-oxet]-2-one], the MIC is 160 µg/mL (≈ 452 µM) in test [1], > 600 µg/mL in test [2] and 160 µg/mL (≈ 452 µM) in test [3].

For `CCN1C(=O)[C@@]2(OC(c3ccccc3)=C2C=O)c2cccc(Cl)c21` [Compound 12, (R)-7-chloro-1-ethyl-2-oxo-4′-phenylspiro[indoline-3,2′-oxete]-3′-carbaldehyde], the MIC in test [1] stood at 300 µg/mL (≈ 883 µM); in test [2], 300 µg/mL (≈ 883 µM); in test [3], 160 µg/mL (≈ 471 µM).

For the compound `CCN1C(=O)[C@@]2(OC=C2C=O)c2cc(Br)ccc21` [Compound 13, (R)-5-bromo-1-ethyl-2-oxospiro[indoline-3,2′-oxete]-3′-carbaldehyde], the MIC in test [1] came to 160 µg/mL (≈ 519 µM); in test [2] it was 160 µg/mL (≈ 519 µM); in test [3] it was 300 µg/mL (≈ 974 µM).

For the compound `O=CC1=CO[C@@]12C(=O)N(Cc1ccccc1)c1c(Cl)cccc12` [Compound 14], the MIC is 160 µg/mL (≈ 491 µM) in test [1], 300 µg/mL (≈ 921 µM) in test [2] and 160 µg/mL (≈ 491 µM) in test [3].

As to `O=C(C1=C(c2ccccc2)O[C@@]12C(=O)N(Cc1ccccc1)c1c(Br)cccc12)c1ccccc1` [Compound 15], the MIC in test [1] is 300 µg/mL (≈ 574 µM); in test [2], 160 µg/mL (≈ 306 µM); in test [3] it was 160 µg/mL (≈ 306 µM).

On to `CCCN1C(=O)[C@@]2(OC(c3ccccc3)=C2C(=O)c2ccccc2)c2cc(Cl)ccc21` [Compound 16, (R)-3′-benzoyl-5-chloro-4′-phenyl-1-propylspiro[indoline-3,2′-oxet]-2-one], for which the MIC in test [1] was 160 µg/mL (≈ 372 µM); in test [2], 160 µg/mL (≈ 372 µM); in test [3], 300 µg/mL (≈ 698 µM).

Consider `O=C1Nc2ccccc2C1=O` [isatin], for which the MIC was 160 µg/mL (≈ 1090 µM) in test [1], > 600 µg/mL in test [2] and 300 µg/mL (≈ 2040 µM) in test [3].
